Test results from patent publication US20230151049A1, “Compounds Useful in HIV Therapy” (priority 2020, published 2023).
Read-outs that look alike come from different tables or passages of the source.

Test: in vivo
Excerpt: General Protocol for Prodrugs Rat PK Studies Conducted at ChemPartner, China
A total of three naïve male Wistar Han rats, 200-250 g, were received from Beijing VR Laboratory Animal Co. LTD. Following an acclimation period, the animals were assigned to the study based on acceptable health as determined by a staff veterinarian and catheter patency. Fasting of the animals before or after dosing was not required.
On Day 1, each animal received a single intramuscular injection of prepared test article at a target dose level of 20 mg/kg equivalent of EFdA and at a dose volume of 2 mL/kg. The injection sites were at gastrocnemius and identified with an indelible marker for daily monitoring during the study. The animals were manually restrained for dosing and were not sedated. The dose suspension was mixed well by inversion before each dose to ensure homogeneity. […] In addition, all animals are monitored twice daily by the veterinary staff for clinical abnormalities.
Blood samples were collected from the study animals as detailed in the sample collection Table 6 below
Each blood sample for PK (200 μL) was collected from tail vein. The blood was transferred to a tube containing NaF/Na2EDTA anticoagulant and inverted several times to mix. Draw 150 μL whole blood from the tube, add 150 uL 100 mM ammonium acetate, pH 4 buffer and mix well. The resulting blood samples were transferred to individual polypropylene tubes and immediately placed on dry ice until storage at nominally −80° C. prior to LC-MS/MS analysis.

[1] = day 49, single IM Example 1A 20 mg/kg
[2] = day 56, single IM Example 1A 20 mg/kg
[3] = day 63, single IM Example 1A 20 mg/kg
[4] = day 70, single IM Example 1A 20 mg/kg
[5] = day 77, single IM Example 1A 20 mg/kg
[6] = day 84, single IM Example 1A 20 mg/kg
[7] = day 91, single IM Example 1A 20 mg/kg
[8] = day 77, single IM Example 2A 56 mg/kg
[9] = day 84, single IM Example 2A 56 mg/kg

C#C[C@]1(COP(=O)(N[C@@H](Cc2ccccc2)C(=O)OCCCCCCCCCCCCCCCCCCCCCC)Oc2ccccc2)O[C@@H](n2cnc3c(N)nc(F)nc32)C[C@@H]1O (single isomer, unassigned) [Example 1A]
Mean concentration of EFdA (day 21, single IM Example 1A 20 mg/kg): BQL
Mean concentration of EFdA (day 35, single IM Example 1A 20 mg/kg): BQL
Mean concentration of EFdA (day 42, single IM Example 1A 20 mg/kg): BQL
Mean concentration of EFdA [1]: BQL
Mean concentration of Example 1A [1]: BQL (BQL = below quantification limit, 0.3-0.5 ng/mL for Example 1A and 0.1-o.3 ng/mL for EFdA)
Mean concentration of EFdA [2]: BQL
Mean concentration of Example 1A [2]: BQL (BQL = below quantification limit, 0.3-0.5 ng/mL for Example 1A and 0.1-o.3 ng/mL for EFdA)
Mean concentration of EFdA [3]: BQL
Mean concentration of Example 1A [3]: BQL (BQL = below quantification limit, 0.3-0.5 ng/mL for Example 1A and 0.1-o.3 ng/mL for EFdA)
Mean concentration of EFdA [4]: BQL
Mean concentration of Example 1A [4]: BQL (BQL = below quantification limit, 0.3-0.5 ng/mL for Example 1A and 0.1-o.3 ng/mL for EFdA)
Mean concentration of EFdA [5]: BQL
Mean concentration of Example 1A [5]: BQL (BQL = below quantification limit, 0.3-0.5 ng/mL for Example 1A and 0.1-o.3 ng/mL for EFdA)
Mean concentration of EFdA [6]: BQL
Mean concentration of Example 1A [6]: BQL (BQL = below quantification limit, 0.3-0.5 ng/mL for Example 1A and 0.1-o.3 ng/mL for EFdA)
Mean concentration of EFdA [7]: BQL
Mean concentration of Example 1A [7]: BQL (BQL = below quantification limit, 0.3-0.5 ng/mL for Example 1A and 0.1-o.3 ng/mL for EFdA)
concentration at 7 day (male, Wistar Han, rat, in vivo, 20 mg/kg equivalent of EFdA, day 7, single IM Example 1A 20 mg/kg, read-out: Mean concentration of Example 1A): 6.38 ng/mL
concentration at 14 day (male, Wistar Han, rat, in vivo, 20 mg/kg equivalent of EFdA, day 14, single IM Example 1A 20 mg/kg, read-out: Mean concentration of Example 1A): 1.86 ng/mL
concentration at 21 day (male, Wistar Han, rat, in vivo, 20 mg/kg equivalent of EFdA, day 21, single IM Example 1A 20 mg/kg, read-out: Mean concentration of Example 1A): 3.42 ng/mL
concentration at 1 day (male, Wistar Han, rat, in vivo, day 1, single IM Example 1A 20 mg/kg, read-out: Mean concentration of Example 1A): 65.3 ng/mL
concentration at 28 day (male, Wistar Han, rat, in vivo, day 28, single IM Example 1A 20 mg/kg, read-out: Mean concentration of Example 1A): 2.72 ng/mL
concentration at 35 day (male, Wistar Han, rat, in vivo, day 35, single IM Example 1A 20 mg/kg, read-out: Mean concentration of Example 1A): 1.34 ng/mL
concentration at 42 day (male, Wistar Han, rat, in vivo, day 42, single IM Example 1A 20 mg/kg, read-out: Mean concentration of Example 1A): 0.633 ng/mL

C#C[C@]1(COP(=O)(N[C@@H](Cc2ccccc2)C(=O)OCCCCCCCCCCCCCCCCCCCCCC)Oc2ccccc2)O[C@@H](n2cnc3c(N)nc(F)nc32)C[C@@H]1O (single isomer, unassigned) [Example 1B]
Mean concentration of EFdA (day 1, single IM Example 1B 62 mg/kg): BQL (BQL = below quantification limit; 0.3 ng/mL for both)
Mean concentration of EFdA (day 7, single IM Example 1B 62 mg/kg): BQL (BQL = below quantification limit; 0.3 ng/mL for both)
Mean concentration of EFdA (day 14, single IM Example 1B 62 mg/kg): BQL (BQL = below quantification limit; 0.3 ng/mL for both)
Mean concentration of EFdA (day 21, single IM Example 1B 62 mg/kg): BQL (BQL = below quantification limit; 0.3 ng/mL for both)
Mean concentration of EFdA (day 28, single IM Example 1B 62 mg/kg): BQL (BQL = below quantification limit; 0.3 ng/mL for both)
Mean concentration of EFdA (day 35, single IM Example 1B 62 mg/kg): BQL (BQL = below quantification limit; 0.3 ng/mL for both)
Mean concentration of EFdA (day 42, single IM Example 1B 62 mg/kg): BQL (BQL = below quantification limit; 0.3 ng/mL for both)
Mean concentration of EFdA (day 49, single IM Example 1B 62 mg/kg): BQL (BQL = below quantification limit; 0.3 ng/mL for both)
Mean concentration of EFdA (day 56, single IM Example 1B 62 mg/kg): BQL (BQL = below quantification limit; 0.3 ng/mL for both)
Mean concentration of EFdA (day 63, single IM Example 1B 62 mg/kg): BQL (BQL = below quantification limit; 0.3 ng/mL for both)
Mean concentration of EFdA (day 70, single IM Example 1B 62 mg/kg): BQL (BQL = below quantification limit; 0.3 ng/mL for both)
Mean concentration of EFdA (day 77, single IM Example 1B 62 mg/kg): BQL (BQL = below quantification limit; 0.3 ng/mL for both)
Mean concentration of EFdA (day 84, single IM Example 1B 62 mg/kg): BQL (BQL = below quantification limit; 0.3 ng/mL for both)
concentration at 1 day (male, Wistar Han, rat, in vivo, day 1, single IM Example 1B 62 mg/kg, read-out: Mean concentration of Example 1B): 70.5 ng/mL
concentration at 7 day (male, Wistar Han, rat, in vivo, day 7, single IM Example 1B 62 mg/kg, read-out: Mean concentration of Example 1B): 8.75 ng/mL
concentration at 14 day (male, Wistar Han, rat, in vivo, day 14, single IM Example 1B 62 mg/kg, read-out: Mean concentration of Example 1B): 6.78 ng/mL
concentration at 21 day (male, Wistar Han, rat, in vivo, day 21, single IM Example 1B 62 mg/kg, read-out: Mean concentration of Example 1B): 3.53 ng/mL
concentration at 28 day (male, Wistar Han, rat, in vivo, day 28, single IM Example 1B 62 mg/kg, read-out: Mean concentration of Example 1B): 4.36 ng/mL
concentration at 35 day (male, Wistar Han, rat, in vivo, day 35, single IM Example 1B 62 mg/kg, read-out: Mean concentration of Example 1B): 1.72 ng/mL
concentration at 42 day (male, Wistar Han, rat, in vivo, day 42, single IM Example 1B 62 mg/kg, read-out: Mean concentration of Example 1B): 1.92 ng/mL
concentration at 49 day (male, Wistar Han, rat, in vivo, day 49, single IM Example 1B 62 mg/kg, read-out: Mean concentration of Example 1B): 0.912 ng/mL
concentration at 56 day (male, Wistar Han, rat, in vivo, day 56, single IM Example 1B 62 mg/kg, read-out: Mean concentration of Example 1B): 1.33 ng/mL
concentration at 63 day (male, Wistar Han, rat, in vivo, day 63, single IM Example 1B 62 mg/kg, read-out: Mean concentration of Example 1B): 0.748 ng/mL
concentration at 70 day (male, Wistar Han, rat, in vivo, day 70, single IM Example 1B 62 mg/kg, read-out: Mean concentration of Example 1B): 0.767 ng/mL
concentration at 77 day (male, Wistar Han, rat, in vivo, day 77, single IM Example 1B 62 mg/kg, read-out: Mean concentration of Example 1B): 1.55 ng/mL
concentration at 84 day (male, Wistar Han, rat, in vivo, day 84, single IM Example 1B 62 mg/kg, read-out: Mean concentration of Example 1B): 2.48 ng/mL

C#C[C@]1(COP(=O)(N[C@@H](Cc2ccccc2)C(=O)OCCCCCCCCCCCCCCCC)Oc2ccccc2)O[C@@H](n2cnc3c(N)nc(F)nc32)C[C@@H]1O (single isomer, unassigned) [Example 2A]
Mean concentration of Example 2A (day 42, single IM Example 2A 56 mg/kg): BQL
Mean concentration of Example 2A (day 49, single IM Example 2A 56 mg/kg): BQL
Mean concentration of Example 2A (day 70, single IM Example 2A 56 mg/kg): BQL
Mean concentration of EFdA [8]: BQL (BQL = below quantification limit, o.5 ng/mL for Example 2A and 0.1-0.3 ng/mL for EFdA)
Mean concentration of Example 2A [8]: BQL
Mean concentration of EFdA [9]: BQL (BQL = below quantification limit, o.5 ng/mL for Example 2A and 0.1-0.3 ng/mL for EFdA)
Mean concentration of Example 2A [9]: BQL
concentration at 1 day (male, Wistar Han, rat, in vivo, day 1, single IM Example 2A 56 mg/kg, read-out: Mean concentration of Example 2A): 3.54 ng/mL
concentration at 7 day (male, Wistar Han, rat, in vivo, day 7, single IM Example 2A 56 mg/kg, read-out: Mean concentration of Example 2A): 1.35 ng/mL
concentration at 14 day (male, Wistar Han, rat, in vivo, day 14, single IM Example 2A 56 mg/kg, read-out: Mean concentration of Example 2A): 3.35 ng/mL
concentration at 21 day (male, Wistar Han, rat, in vivo, day 21, single IM Example 2A 56 mg/kg, read-out: Mean concentration of Example 2A): 2.42 ng/mL
concentration at 28 day (male, Wistar Han, rat, in vivo, day 28, single IM Example 2A 56 mg/kg, read-out: Mean concentration of Example 2A): 4.08 ng/mL
concentration at 35 day (male, Wistar Han, rat, in vivo, day 35, single IM Example 2A 56 mg/kg, read-out: Mean concentration of Example 2A): 4.53 ng/mL
concentration at 56 day (male, Wistar Han, rat, in vivo, day 56, single IM Example 2A 56 mg/kg, read-out: Mean concentration of Example 2A): 1.14 ng/mL
concentration at 63 day (male, Wistar Han, rat, in vivo, day 63, single IM Example 2A 56 mg/kg, read-out: Mean concentration of Example 2A): 1.05 ng/mL
